Data as given in patent US20240374535A1, “COMPOSITIONS AND METHODS FOR TREATING BIOFILM DISORDERS AND INFECTIONS” (AHV International B.V., priority 2021, published 2024).
Read-outs that look alike come from different tables or passages of the source.

Assays:
[1] = system: Pseudomonas aeruginosa ATCC 27853; experiment: MIC assay (planktonic growth inhibition, OD600); type: cell-based, P. aeruginosa; settings: for IC50 / IC90: Pseudomonas aeruginosa; for IC50: read-out: P. aeruginosa MIC50; for IC90: read-out: P. aeruginosa MIC90
Protocol: (§1) The exact weighed amount was noted and the volume of solvent to reach a 80 mM dilution calculated. Half of the volume was added first, by adding Tween 80. In a second step, the other half of the volume DMSO was added and the closed tube inverted 5-10 times and then vortexed very thoroughly for at least 30 seconds. If after this procedure unsolved material was still visible, the tube was placed in a shaker at 37° C. at 150 rpm for at least 30 minutes. […] For the MBEC assay (method 1.3) the solution needs to be diluted to a final concentration of 2 mM in 0.9% saline solution and then further diluted to 1 mM, 0.5 mM, 0.25 mM and 0.125 mM in saline. Those dilutions were added as treatment to the 96 well plates with the grown biofilm (see method 3).
(§2) Frozen aliquots of Staphylococcus epidermis ATCC 35984 and Pseudomonas aeruginosa ATCC 27853 were used to inoculate a tryptic soy agar (TSA) plate and incubated overnight at 37° C. After incubation 3-5 well-isolated colonies with the same morphology were selected from the TSA plate and resuspended in 2 mL 0.9% saline solution with 3-6 glass beads and vortexed. The optical density at 600 nm (OD600) of the bacterial suspension was measured with a spectrophotometer (Evolution™ 201/220 UV-Visible Spectrophotometer, Thermo Fisher Scientific) and diluted to an OD600 of 0.0008, which resembles 10^6 CFU/mL.
(§3) The MIC assay was performed in a flat-bottom 96-microtiter plate. 50 μL of MHB-II was added into columns 2-11, and 100 μL to column 12 for sterility control. 100 μL of the 8 mM test compound solution (method 1) was added to column 1. A two-fold dilution series of the solution in MHB-II was achieved by resuspending 50 μL of the 8 mM solution from column 1 to column 2. This step was repeated until column 10. The respective concentration of Tween 80 and DMSO in column 1 was 2.5%, which is two-fold diluted throughout the plate. 50 μL of the bacterial suspension was added to column 1-11. The microtiter plates were sealed with adhesive polyethylene film for sealing microplates (Diversified Biotech) and incubated for 24 h at 37° C. After incubation the OD was measured at 600 nm with the Varioskan (Thermo Fisher Scientific). […] This assay was repeated three times in three independent experiments.

udder cleft wound = experiment: In vivo udder cleft dermatitis test: wound assessment after spray treatment; design: species or system cow; settings: for Conclusion (effect on udder cleft wound): over 60 days, all cows of the group
Protocol: An example of a biofilm-related disorder is Udder Cleft Dermatitis (UCD), which relates to a chronic wound. In this Example, di-alkyl thiosulfonates, dialkyl thiosulfinates and di-alkyl disulfides were tested for their effect on cows affected by UCD.
Experiments were performed to examine the effect of various sprays containing water (control), a test compound, or a reference compound (CTC spray, which contains chlorotetracycline hydrochloride, and was obtained from Dechra veterinary products).
0.35 mL of the spray was sprayed on an udder cleft wound per treatment. Treatments took place once a day at t=0, at t=3 days and t=6 days. In Table 6, the assessment qualifications that are used in Table 7, are explained.

[2] = system: Staphylococcus epidermis ATCC 35984 biofilm; experiment: MBEC assay (biofilm eradication, CFU log reduction); type: cell-based, S. epidermidis; settings: for minimal effective concentration: read-out: S. epidermidis MBEC mM with log reduction ≥1
Protocol: as §1
(§4) Frozen aliquots of Staphylococcus epidermis ATCC 35984 and Pseudomonas aeruginosa ATCC 27853 were used to inoculate 20 mL of Tryptic Soy Broth (TSB) in a 100 mL Erlenmeyer flask at 37° C. and 150 rpm and incubated overnight (Infors). The OD600 of the overnight culture was measured with a spectrophotometer (Evolution™ 201/220 UV-Visible Spectrophotometer, Thermo Fisher Scientific) and diluted to an OD600 of 0.2, which resembles 10^8 CFU/mL. The cell suspension of OD600=0.2 was seeded into a U-bottom-shaped 96 well plates by pipetting 100 μL per well in column 1-11, column 12 was filled with 100 μL medium as sterility control. The 96 well plates were sealed with adhesive polyethylene film for sealing microplates and incubated for 48 h at 37° C. at static conditions. After the biofilm growth phase, 100 μL of treatment solutions (method 1) were added to the vials resulting in treatment concentrations of 1 mM, 0.5 mM, 0.25 mM and 0.125 mM and with the respective concentration of Tween 80 and DMSO each at 0.63%, 0.32%, 0.16% and 0.08%. The same concentration was applied to four different wells of the same bacterial strain, resulting in four replicates for each concentration and strain. The treatment was incubated for 20 h at 37° C. at static conditions. After the treatment the supernatant was carefully removed and the well with the biofilm washed carefully for one time with 200 μL 0.9% saline solution. 200 μL saline solution was added and the biofilm was resuspended thoroughly. When fully homogenized then 20 μL was used for the first dilution in 180 μL 0.9% saline solution, which was prepared in a second plate. This dilution was continued until dilution step 10E−5 and 100 μL of the 10E−4 and 10E−5 dilution plated on a TSA plate. The TSA plates were incubated at 37° C. for 24 h. The colonies on the plates were enumerated, the colony forming units per mL of the dispensed biofilm and averages thereof and the log reduction in comparison with the untreated sample from the same wells plate calculated. Reduction of colony forming units goes hand in hand with the thickness of the biofilm and thus with the number bacteria that are present in the biofilm. Therefore, a significant reduction of colony forming units in the biofilm was defined at the value of log reduction ≥1 or more. This assay was repeated two times in two independent experiments)

[3] = system: Staphylococcus epidermis ATCC 35984; experiment: MIC assay (planktonic growth inhibition, OD600); type: cell-based, S. epidermidis; settings: for IC50: read-out: S. epidermidis MIC50; for IC90: read-out: S. epidermidis MIC90
Protocol: as §1, §2, §3

[4] = system: Pseudomonas aeruginosa ATCC 27853 biofilm; experiment: MBEC assay (biofilm eradication, CFU log reduction); type: cell-based, P. aeruginosa; settings: for minimal effective concentration: Pseudomonas aeruginosa, read-out: P. aeruginosa MBEC mM with log reduction ≥1
Protocol: as §1, §4

[5] = ATCC27853, minimal concentration reducing final OD600 by 50%, 24 h at 37° C.
[6] = ATCC27853, minimal concentration reducing final OD600 by 90%, 24 h at 37° C.
[7] = 48 h grown biofilm, 20 h treatment, CFU log reduction vs untreated
[8] = minimal concentration reducing final OD600 by 50%, 24 h at 37° C.
[9] = minimal concentration reducing final OD600 by 90%, 24 h at 37° C.
[10] = ATCC27853, 48 h grown biofilm, 20 h treatment, CFU log reduction vs untreated

CC(C)SSC(C)C [Di-isopropyl disulfide]
IC50 [1, 5]: > 4 mM
IC90 [1, 6]: > 4 mM
Conclusion (effect on udder cleft wound) (udder cleft wound): No effect
minimal effective concentration [2, 7]: > 1 mM
IC50 [3, 8]: > 4 mM
IC90 [3, 9]: > 4 mM
minimal effective concentration [4, 10]: > 1 mM

Fc1ccc(SSc2ccc(F)cc2)cc1 [Bis (4-fluorophenyl) disulfide]
IC50 [1, 5]: 0.125 mM
IC90 [1, 6]: 0.25 mM
Conclusion (effect on udder cleft wound) (udder cleft wound): No effect
minimal effective concentration [2, 7]: > 1 mM
IC50 [3, 8]: 0.06 mM
IC90 [3, 9]: 0.06 mM
minimal effective concentration [4, 10]: > 1 mM

Bis(4-chlorophenyl) thiosulfinate [Bis (4-chlorophenyl) thiosulfinate]
P. aeruginosa MIC50 [1, 8]: 0.02 mM
P. aeruginosa MIC90 [1, 9]: 0.02 mM
S. epidermidis MBEC mM with log reduction ≥1 [2, 7]: >1 mM
S. epidermidis MIC50 [3, 8]: 0.02 mM
S. epidermidis MIC90 [3, 9]: 0.02 mM
P. aeruginosa MBEC mM with log reduction ≥1 [4, 7]: >1 mM

CSSC [Di-methyl disulfide]
IC50 ([1]; ATCC27853, 24 h): > 4 mM
IC90 ([1]; ATCC27853, 24 h): > 4 mM
minimal effective concentration ([2]; 20 h): > 1 mM
IC50 ([3]; 24 h): > 4 mM
IC90 ([3]; 24 h): > 4 mM
minimal effective concentration ([4]; ATCC27853, 20 h): > 1 mM

CCS[S+]([O-])CC (stereo not drawn) [Di-ethyl thiosulfinate, S-ethyl ethanesulfinothioate]
Conclusion (effect on udder cleft wound) (udder cleft wound): No effect

c1ccc(CSSCc2ccccc2)cc1 [Di-benzyl disulfide]
IC50 ([1]; ATCC27853, 24 h): > 4 mM
IC90 ([1]; ATCC27853, 24 h): > 4 mM
Conclusion (effect on udder cleft wound) (udder cleft wound): No effect
minimal effective concentration ([2]; 20 h): > 1 mM
IC50 ([3]; 24 h): > 4 mM
IC90 ([3]; 24 h): > 4 mM
minimal effective concentration ([4]; ATCC27853, 20 h): > 1 mM

CCCCCCCCCCSSCCCCCCCCCC [Di-n-decyl disulfide]
IC50 [1, 5]: > 4 mM
IC90 [1, 6]: > 4 mM
minimal effective concentration [2, 7]: > 1 mM
IC50 [3, 8]: > 4 mM
IC90 [3, 9]: > 4 mM
minimal effective concentration [4, 10]: > 1 mM

CCCCCCCCCCS[S+]([O-])CCCCCCCCCC (stereo not drawn) [S-decyl-1-decane thiosulfinate]
P. aeruginosa MIC50 [1, 8]: >4 mM
P. aeruginosa MIC90 [1, 9]: >4 mM
S. epidermidis MBEC mM with log reduction ≥1 [2, 7]: >1 mM
S. epidermidis MIC50 [3, 8]: >4 mM
S. epidermidis MIC90 [3, 9]: >4 mM
P. aeruginosa MBEC mM with log reduction ≥1 [4, 7]: >1 mM

CCCSSC [Methyl propyl disulfide]
IC50 [1, 5]: > 4 mM
IC90 [1, 6]: > 4 mM
minimal effective concentration [2, 7]: > 1 mM
IC50 [3, 8]: > 4 mM
IC90 [3, 9]: > 4 mM
minimal effective concentration [4, 10]: > 1 mM

Bis(4-Fluorophenyl) thiosulfonate [Bis (4-fluorophenyl) thiosulfonate]
P. aeruginosa MIC50 [1, 8]: 2 mM
P. aeruginosa MIC90 [1, 9]: 2 mM
S. epidermidis MBEC mM with log reduction ≥1 [2, 7]: >1 mM
S. epidermidis MIC50 [3, 8]: 0.25 mM
S. epidermidis MIC90 [3, 9]: 2 mM
P. aeruginosa MBEC mM with log reduction ≥1 [4, 7]: >1 mM

CCSSCC [Di-ethyl disulfide]
IC50 ([1]; ATCC27853, 24 h): > 4 mM
IC90 ([1]; ATCC27853, 24 h): > 4 mM
minimal effective concentration ([2]; 20 h): > 1 mM
IC50 ([3]; 24 h): > 4 mM
IC90 ([3]; 24 h): > 4 mM
minimal effective concentration ([4]; ATCC27853, 20 h): > 1 mM

CCCCCCSSCCCCCC [Di-n-hexyl disulfide]
IC50 [1, 5]: > 4 mM
IC90 [1, 6]: > 4 mM
minimal effective concentration [2, 7]: > 1 mM
IC50 [3, 8]: > 4 mM
IC90 [3, 9]: > 4 mM
minimal effective concentration [4, 10]: > 1 mM

Di-isopropyl thiosulfonate
P. aeruginosa MIC50 [1, 8]: 2 mM
P. aeruginosa MIC90 [1, 9]: 2 mM
S. epidermidis MBEC mM with log reduction ≥1 [2, 7]: >1 mM
S. epidermidis MIC50 [3, 8]: 2 mM
S. epidermidis MIC90 [3, 9]: 2 mM
P. aeruginosa MBEC mM with log reduction ≥1 [4, 7]: >1 mM

Bis(4-fluorophenyl) thiosulfinate [Bis (4-fluorophenyl) thiosulfinate]
P. aeruginosa MIC50 [1, 8]: 1 mM
P. aeruginosa MIC90 [1, 9]: 4 mM
S. epidermidis MBEC mM with log reduction ≥1 [2, 7]: >1 mM
S. epidermidis MIC50 [3, 8]: 0.125 mM
S. epidermidis MIC90 [3, 9]: 0.25 mM
P. aeruginosa MBEC mM with log reduction ≥1 [4, 7]: >1 mM

c1coc(CSSCc2ccco2)c1 [Di-furfuryl disulfide]
IC50 [1, 5]: 2 mM
IC90 [1, 6]: > 4 mM
minimal effective concentration [2, 7]: > 1 mM
IC50 [3, 8]: 2 mM
IC90 [3, 9]: > 4 mM
minimal effective concentration [4, 10]: > 1 mM

CCCSS(=O)(=O)c1ccc(C)cc1 [S-propyl-4-methylbenzene thiosulfonate]
P. aeruginosa MIC50 [1, 8]: 0.06 mM
P. aeruginosa MIC90 [1, 9]: 0.06 mM
S. epidermidis MBEC mM with log reduction ≥1 [2, 7]: 0.5 mM
S. epidermidis MIC50 [3, 8]: 0.06 mM
S. epidermidis MIC90 [3, 9]: 0.13 mM
P. aeruginosa MBEC mM with log reduction ≥1 [4, 7]: >1 mM

Bis(4-Chlorophenyl) thiosulfonate [Bis (4-chlorophenyl) thiosulfonate]
P. aeruginosa MIC50 [1, 8]: 0.25 mM
P. aeruginosa MIC90 [1, 9]: 2 mM
S. epidermidis MBEC mM with log reduction ≥1 [2, 7]: >1 mM
S. epidermidis MIC50 [3, 8]: 0.03 mM
S. epidermidis MIC90 [3, 9]: 0.06 mM
P. aeruginosa MBEC mM with log reduction ≥1 [4, 7]: >1 mM

CCCCS[S+]([O-])CCCC (stereo not drawn) [Di-n-butyl thiosulfinate, S-butyl butane-1-sulfinothioate]
inflammation of the udder cleft wound after treatment (udder cleft wound; immediately after the treatment, later infection reduced and wound healed): fast inflammation reduction
Conclusion (effect on udder cleft wound) (udder cleft wound): Positive effect

O=S(=O)(Cc1ccccc1)SCc1ccccc1 [Di-benzyl thiosulfonate]
P. aeruginosa MIC50 [1, 8]: 4 mM
P. aeruginosa MIC90 [1, 9]: >4 mM
S. epidermidis MBEC mM with log reduction ≥1 [2, 7]: 0.125 mM
S. epidermidis MIC50 [3, 8]: 2 mM
S. epidermidis MIC90 [3, 9]: 4 mM
P. aeruginosa MBEC mM with log reduction ≥1 [4, 7]: 0.125 mM
